Measured values reported in patent US11008572B2, “Methods and compositions for modulating splicing” (SKYHAWK THERAPEUTICS, INC., priority 2017, dated 2021).
Read-outs that look alike come from different tables or passages of the source.

Columns and labels:
Type in all cases: cell-based
[1] = tested on: FOXM1^A2 mRNA and FOXM1^BC mRNA; test: Splicing assay (FOXM1), qPCR of isoform mRNAs; settings: for IC50: FoxM1 BC mRNA decrease (exon included)
In short: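 RT-qPCR read-out after 24 h compound exposure at 37° C., 0.2% DMSO, top dose 10 μM with 4-fold 8-point dilutions, 20,000 cells per well. Copy numbers from plasmid standard curves, PPIA-normalized, expressed as isoform ratio relative to DMSO.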

[2] = tested on: A-673 cells; test: Cell viability, crystal violet staining; settings: Homo sapiens, A673, cell viability
In short: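 Readout is absorbance at 570 nm of crystal violet, taken up in 0.1 M sodium citrate in 50% ethanol after staining with 0.5% dye in 25% methanol. Plates held 5×10^3 cells per well, and compounds were added one day after seeding for 72 hours. Data are relative to vehicle, mean±SE.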

[3] = tested on: IKBKAP^FL mRNA; test: IKBKAP splicing assay, qPCR; settings: 24 hours of incubation
Experimental: (§1) Various cells lines were treated with the SMSMs described herein. RNA was then isolated, cDNA synthesized, qPCR performed and the levels of IKBKAP targets of the SMSMs were determined.
(§2) On the day of the experiment, a 96-well plate was seeded with the cell lines of interest. The cells were diluted with full growth media to a concentration of 2.0×10^5 cells/mL and 100 μL of cells were added to each well (20,000 cells per well). The cells were treated with a compound immediately after plating.
(§3) The compounds were then added to the cell plate using the HP compound dispenser. In the initial experiment, a top concentration of 10 μM and an 8 point 4-fold dilution scheme was used. The stock compounds were made at a concentration of 5 mM, and the DMSO concentration was set to 0.2%. DMSO was used to normalize all the compound-containing wells and the untreated cells.
(§4) The treated cells were incubated at 37° C. in a 5% CO2 incubator for the desired amount of time. Plates were placed in a plastic bag with a wet paper towel to prevent evaporation.
(§5) RNA was isolated using the Cells to CT kit (ThermoFisher, AM1728). The cells were washed once with 100 μL cold PBS. 50 μL of lysis buffer was added to each well/tube (49.5 μL lysis buffer+0.5 μL DNase I per well/tube). The lysis reaction was mixed and incubated at room temperature for 5 minutes. 5 μL of stop solution was added directly into each cell lysis reaction and mixed by pipetting up and down 5 times. The plates/tubes were incubated at room temperature for 2 minutes then placed on ice if the cDNA synthesis was to be performed immediately. Otherwise, the plates/tubes were stored at −80° C.
(§6) cDNA synthesis reactions were then performed. 40 μL RT master mix was added to PCR tubes or plate wells. 10 μL of RNA was added to each tube/well. The RT thermal cycler program was then run and tubes or plate wells were incubated at 37° C. for 1 hour, then at 95° C. for 5 minutes to deactivate the enzyme.
(§7) The qPCR was performed using a QuantStudio 6 instrument (ThermoFisher) and the following cycling conditions and according to the tables below. All samples and standards were analyzed in triplicate. Cycle 1: 2 minutes at 50° C. Cycle 2: 10 minutes at 95° C. Cycle 3 (repeat 40 times): 15 seconds at 95° C., 1 minute at 60° C.
(§8) The determined IKBKAP^FL and […] isoform quantities were then used to determine the IKBKAP^FL: IKBKAP^Δ20 ratio at increasing SMSM compound concentrations. The PPIA quantities were used in the normalization to account of cell proliferation effects of the compounds.
(§9) An assay to measure the IKBKAP^FL mRNA and IKBKAP^Δ20 mRNA simultaneously in cell wells was performed. The RNA values were measured relative to DMSO control and also included a housekeeping gene, PPIA to ensure data was consistent. The mRNA values were measured after 24 hours of incubation with the SMSM compounds.

[4] = tested on: IKBKAP^Δ20 mRNA; test: IKBKAP splicing assay, qPCR; settings: 24 hours of incubation
Experimental: as §1, §2, §3, §4, §5, §6, §7, §8, §9

[5] = read-out: A-673 IC50 (nM) Cell viability
[6] = 24 h, 0.1-1000 nM, 24 hours, read-out: Splice IC50 (nM), FoxM1 BC mRNA decrease (exon included)
[7] = FoxM1 A mRNA increase (exon excluded), 0.1-1000 nM, 24 hours, read-out: Splice EC50 (nM), FoxM1 A mRNA increase (exon excluded)
[8] = read-out: A-673 IC50 (nM), Cell viability

| SMILES | IC50 [1, 6] [nM] | EC50 [1, 7] [nM] | IC50 [2, 8] [nM] | further results |
| --- | --- | --- | --- | --- |
| CN(c1ccc(-c2ccc(-c3cn[nH]c3)cc2O)nn1)[C@@H]1C[C@H]2COC[C@@H](C1)N2 [compound 154, 2-(6-(((1R,5S,7r)-3-oxa-9-azabicyclo[3.3.1]nonan-7-yl)(methyl)amino)pyridazin-3-yl)-5-(1H-pyrazol-4-yl)phenol] |  |  |  | IC50 ([1]; read-out: Splice IC50 (nM) FoxM1 BC mRNA decrease (exon included)): 10 to 100 nM; EC50 ([1]; read-out: Splice EC50 (nM) FoxM1 A mRNA increase (exon excluded)): 10 to 100 nM; IC50 [2, 5]: 10 to 100 nM; EC50 [3]: 351 to 1000 nM |
| CN(c1ccc(-c2cc3cccnc3cc2O)nn1)[C@@H]1C[C@H]2CC[C@@H](C1)N2 [compound 162, 6-(6-(((1R,3s,5S)-8-azabicyclo[3.2.1]octan-3-yl)(methyl)amino)pyridazin-3-yl)quinolin-7-ol] |  |  |  | IC50 [2, 5]: 251 to 500 nM; IC50 [4]: 201 to 1000 nM |
| Cc1ccn(-c2ccc(-c3ccc(O[C@@H]4C[C@H]5CC[C@@H](C4)N5)nn3)c(O)c2)n1 [compound 250, 2-(6-(((1R,3s,5S)-8-azabicyclo[3.2.1]octan-3-yl)oxy)pyridazin-3-yl)-5-(3-methyl-1H-pyrazol-1-yl)phenol] | 101 to 250 | 10 to 100 | 501 to 1000 |  |
| Oc1cc(-n2ccnn2)ccc1-c1ccc(O[C@@H]2C[C@H]3CC[C@@H](C2)N3)nn1 [compound 252, 2-(6-(((1R,3s,5S)-8-azabicyclo[3.2.1]octan-3-yl)oxy)pyridazin-3-yl)-5-(1H-1,2,3-triazol-1-yl)phenol] | 251 to 500 | 101 to 250 | 501 to 1000 |  |
| Oc1cc(-c2nnn[nH]2)ccc1-c1ccc(O[C@@H]2C[C@H]3CC[C@@H](C2)N3)nn1 [compound 254, 2-(6-(((1R,3s,5S)-8-azabicyclo[3.2.1]octan-3-yl)oxy)pyridazin-3-yl)-5-(1H-tetrazol-5-yl)phenol] | > 1000 | > 1000 | > 1000 |  |
| Cc1ncc(-c2ccc(-c3ccc(O[C@@H]4C[C@H]5CC[C@@H](C4)N5)nn3)c(O)c2)o1 [compound 255, 2-(6-(((1R,3s,5S)-8-azabicyclo[3.2.1]octan-3-yl)oxy)pyridazin-3-yl)-5-(2-methyloxazol-5-yl)phenol] | 101 to 250 | 101 to 250 | 501 to 1000 |  |
| Cc1cc(-c2ccc(-c3ccc(O[C@@H]4C[C@H]5CC[C@@H](C4)N5)nn3)c(O)c2)on1 [compound 256, 2-(6-(((1R,3s,5S)-8-azabicyclo[3.2.1]octan-3-yl)oxy)pyridazin-3-yl)-5-(3-methylisoxazol-5-yl)phenol] | > 1000 | > 1000 | > 1000 |  |
| CN(c1ccc(-c2ccc(-c3cc(=O)n(C)cn3)cc2O)nn1)[C@H]1C[C@]2(C)CCC[C@](C)(C1)N2 [compound 266, 6-(4-(6-(((1R,3s,5S)-1,5-dimethyl-9-azabicyclo[3.3.1]nonan-3-yl)(methyl)amino)pyridazin-3-yl)-3-hydroxyphenyl)-3-methylpyrimidin-4(3H)-one] |  |  | 10 to 100 | IC50 [4]: < 200 nM; EC50 [3]: < 100 nM |
| CN(c1ccc(-c2ccc(-n3nccn3)cc2O)nn1)[C@@H]1C[C@H]2CCC[C@@H](C1)N2 [compound 275, 2-(6-(((1R,3s,5S)-9-azabicyclo[3.3.1]nonan-3-yl)(methyl)amino)pyridazin-3-yl)-5-(2H-1,2,3-triazol-2-yl)phenol] | < 10 | < 10 | < 10 |  |
| Oc1cc(-c2cn[nH]c2)ccc1-c1ccc(O[C@H]2CC3CCC[C@@H](C2)N3)nn1 [compound 277, 2-(6-(((1R,3r,5S)-9-azabicyclo[3.3.1]nonan-3-yl)oxy)pyridazin-3-yl)-5-(1H-pyrazol-4-yl)phenol] | > 1000 | > 1000 | > 1000 |  |
| Oc1cc(-c2cn[nH]c2)c(F)cc1-c1ccc(O[C@@H]2C[C@H]3CCC[C@@H](C2)N3)nn1 [compound 278, 2-(6-(((1R,3s,5S)-9-azabicyclo[3.3.1]nonan-3-yl)oxy)pyridazin-3-yl)-4-fluoro-5-(1H-pyrazol-4-yl)phenol] |  |  | 10 to 100 | IC50 [4]: < 200 nM; EC50 [3]: 101 to 350 nM |
| CN(c1ccc(-c2ccc(-n3ccnn3)cc2O)nn1)[C@@H]1C[C@H]2CCC[C@@H](C1)N2 [compound 279, 2-(6-(((1R,3s,5S)-9-azabicyclo[3.3.1]nonan-3-yl)(methyl)amino)pyridazin-3-yl)-5-(1H-1,2,3-triazol-1-yl)phenol] | < 10 | < 10 | 10 to 100 |  |
| [2H]C([2H])([2H])n1ncc(-c2ccc(-c3ccc(N(C)C4CC5CCCC(C4)N5)nn3)c(O)c2)cc1=O [compound 281, 5-(4-(6-(((1R,3s,5S)-9-azabicyclo[3.3.1]nonan-3-yl)(methyl)amino)pyridazin-3-yl)-3-hydroxyphenyl)-2-(methyl-d3)pyridazin-3(2H)-one] | < 10 | < 10 | < 10 |  |
| [2H]C([2H])([2H])n1ccc(-c2ccc(-c3ccc(N(C)C4CC5CCCC(C4)N5)nn3)c(O)c2)cc1=O [compound 284, 4-(4-(6-(((1R,3s,5S)-9-azabicyclo[3.3.1]nonan-3-yl)(methyl)amino)pyridazin-3-yl)-3-hydroxyphenyl)-1-(methyl-d3)pyridin-2(1H)-one] | < 10 | > 1000 | < 10 |  |
| CN(c1ccc(-c2cc(F)c(-c3ccn(C)c(=O)c3)cc2O)nn1)[C@@H]1C[C@H]2CCC[C@@H](C1)N2 [compound 285, 4-(4-(6-(((1R,3s,5S)-9-azabicyclo[3.3.1]nonan-3-yl)(methyl)amino)pyridazin-3-yl)-2-fluoro-5-hydroxyphenyl)-1-methylpyridin-2(1H)-one] | < 10 | > 1000 | < 10 |  |
| CN(c1ccc(-c2cc3oc(C(=O)NC4CC4)cc3cc2O)nn1)[C@@H]1C[C@H]2CCC[C@@H](C1)N2 [compound 296, 6-(6-(((1R,3s,5S)-9-azabicyclo[3.3.1]nonan-3-yl)(methyl)amino)pyridazin-3-yl)-N-cyclopropyl-5-hydroxybenzofuran-2-carboxamide] | 10 to 100 | < 10 | 101 to 250 |  |
| [2H]C([2H])([2H])c1ncc(-c2cc(O)c(-c3ccc(N(C)[C@H]4C[C@]5(C)CC[C@](C)(C4)N5)nn3)cc2F)o1 [compound 304, 2-(6-(((1R,3s,5S)-1,5-dimethyl-8-azabicyclo[3.2.1]octan-3-yl)(methyl)amino)pyridazin-3-yl)-4-fluoro-5-(2-(methyl-d3)oxazol-5-yl)phenol] | < 10 | > 1000 | 10 to 100 |  |
| CN(c1ccc(-c2cc(F)c(-c3cc[nH]c(=O)c3)cc2O)nn1)[C@H]1C[C@]2(C)CCC[C@](C)(C1)N2 [compound 307, 4-(4-(6-(((1R,3s,5S)-1,5-dimethyl-9-azabicyclo[3.3.1]nonan-3-yl)(methyl)amino)pyridazin-3-yl)-2-fluoro-5-hydroxyphenyl)pyridin-2(1H)-one] |  |  |  | IC50 ([1]; read-out: Splice IC50 (nM), FoxM1 BC mRNA decrease (exon included)): < 10 nM; EC50 ([1]; read-out: Splice EC50 (nM), FoxM1 A mRNA increase (exon excluded)): < 10 nM; IC50 ([2]; read-out: A-673 IC50 (nM), cell viability): 10 to 100 nM |
| CN(c1ccc(-c2ccc(-c3cn[nH]c3)cc2O)nn1)C1[C@H]2CN(C(=O)CCN)C[C@@H]12 (stereo partly drawn) [compound 315, 3-amino-1-((1R,5S)-6-((6-(2-hydroxy-4-(1H-pyrazol-4-yl)phenyl)pyridazin-3-yl)(methyl)amino)-3-azabicyclo[3.1.0]hexan-3-yl)propan-1-one] |  |  |  | IC50 [4]: > 1000 nM; EC50 [3]: > 1000 nM |
